Measured values from ChEMBL document CHEMBL2384963, “Diterpenoids from the twigs and leaves of Fokienia hodginsii” (J Nat Prod, 2013).

Assays:
Type in all cases: functional, cell-based
A549 = experiment: Cytotoxicity against human A549 cells after 48 hrs by MTT assay; conditions: A549, 48 h
HL-60 = experiment: Cytotoxicity against human HL60 cells after 48 hrs by MTT assay; conditions: HL-60, 48 h
SW480 = experiment: Cytotoxicity against human SW480 cells after 48 hrs by MTT assay; conditions: SW480, 48 h
MCF7 = experiment: Cytotoxicity against human MCF7 cells after 48 hrs by MTT assay; conditions: MCF7, 48 h
SMMC-7721 = experiment: Cytotoxicity against human SMMC7721 cells after 48 hrs by MTT assay; conditions: SMMC-7721, 48 h

Compound | IC50 (A549) [µM] | IC50 (HL-60) [µM] | IC50 (SW480) [µM] | IC50 (MCF7) [µM] | IC50 (SMMC-7721) [µM]
C=C1CC[C@@H]2[C@](C)(CCC[C@]2(C)C(=O)O)[C@H]1CCC1=CCOC1=O [PINUSOLIDIC ACID] | > 40 | > 40 | > 40 | > 40 | > 40
C=C[C@@]1(C)C=C[C@H]2C(=C1)[C@H](O)C[C@H]1[C@](C)(CO)CCC[C@]21C | > 40 | > 40 | > 40 | > 40 | > 40
C=C/C(C)=C/C[C@H]1C(=C)CC[C@@H]2[C@]1(C)CCC[C@]2(C)C=O | > 40 | > 40 | > 40 | > 40 | > 40
C=C[C@]1(C)C=C2CC[C@H]3C(C)(C)[C@@H](O)CC[C@]3(C)[C@H]2[C@H](O)C1 | > 40 | > 40 | > 40 | > 40 | > 40
C=C[C@@](C)(O)CC[C@H]1C(=C)CC[C@@H]2[C@]1(C)CCC[C@]2(C)C(=O)O | > 40 | > 40 | > 40 | > 40 | > 40
C=C1CC[C@@H]2[C@](C)(CCC[C@]2(C)C(=O)O)[C@H]1C/C=C(\C)C=O | > 40 | > 40 | > 40 | > 40 | > 40
CC(C)c1cc2c(cc1O)[C@@]1(CO)CCCC(C)(C)[C@@H]1CC2 [PISIFEROL] | > 40 | > 40 | > 40 | > 40 | > 40
C=C/C(C)=C/C[C@H]1C(=C)CC[C@@H]2[C@]1(C)CCC[C@]2(C)C(=O)O | > 40 | > 40 | > 40 | > 40 | > 40
C=CC(=C)CC[C@@H]1[C@@]2(C)CCC[C@](C)(COC(=O)/C=C\c3ccc(O)cc3)[C@@H]2CC[C@@]1(C)O | 17.1 | 14.1 | 13.6 | 15.1 | 16.2
C=C[C@]1(C)C=C2CC[C@H]3C(C)(C)CCC[C@]3(C)[C@H]2[C@H](O)C1 | > 40 | > 40 | > 40 | > 40 | > 40
C=C[C@]1(C)C=C2CC[C@@H]3[C@](C)(CCC[C@@]3(C)C(=O)O)[C@H]2CC1 [SANDARACOPIMARIC ACID] | > 40 | > 40 | > 40 | > 40 | > 40
CC(C)c1cc2c(cc1O)[C@@]1(C=O)CCCC(C)(C)[C@@H]1CC2 [PISIFERAL] | 21 | 14.3 | 14.4 | 15.6 | 19.7
C=C1CC[C@@H]2[C@](C)(CCC[C@@]2(C)C(=O)O)[C@H]1CC/C(C)=C/COC(C)=O | > 40 | > 40 | > 40 | > 40 | > 40
C=CC(=C)CC[C@@H]1[C@@]2(C)CCC[C@](C)(COC(=O)/C=C\c3ccc(O)c(OC)c3)[C@@H]2CC[C@@]1(C)O | 17.3 | 9.1 | 17.6 | 15.4 | 7.5
C=CC(=C)[C@@H](O)C[C@H]1C(=C)CC[C@@H]2[C@]1(C)CCC[C@]2(C)C(=O)O | > 40 | > 40 | > 40 | > 40 | > 40
CC(C)C1=C[C@]2(O)CC[C@H]3C(C)(C)CCC[C@]3(O)CC2=CC1=O | > 40 | > 40 | > 40 | > 40 | > 40
C=C[C@]1(C)O[C@H]1C[C@H]1C(=C)CC[C@@H]2[C@]1(C)CCC[C@]2(C)C(=O)O | > 40 | > 40 | > 40 | > 40 | > 40
C=C[C@]1(C)C=C2CC[C@H]3[C@](C)(CO)CCC[C@]3(C)[C@H]2[C@H](O)C1 | > 40 | > 40 | > 40 | > 40 | > 40
C=CC(=C)[C@H](O)C[C@H]1C(=C)CC[C@@H]2[C@]1(C)CCC[C@]2(C)C(=O)O | > 40 | > 40 | > 40 | > 40 | > 40
C=C[C@@]1(C)O[C@H]1C[C@H]1C(=C)CC[C@@H]2[C@]1(C)CCC[C@]2(C)C(=O)O | > 40 | > 40 | > 40 | > 40 | > 40
C=C1CC[C@@H]2[C@](C)(CCC[C@]2(C)C(=O)O)[C@H]1CC/C(C)=C/CO [ISOCUPRESSIC ACID] | > 40 | > 40 | > 40 | > 40 | > 40
C=CC(=C)CC[C@@H]1[C@@]2(C)CCC[C@](C)(COC(=O)/C=C/c3ccc(O)cc3)[C@@H]2CC[C@@]1(C)O | 20.4 | 11.8 | 19.3 | 16.6 | 15.5
CC(C)c1cc2c(cc1O)[C@@]1(CO)CCCC(C)(C)[C@H]1CC2 | 20.7 | 15.5 | 15.1 | 15 | 15.2
C=CC(=C)CC[C@@H]1[C@@]2(C)CCC[C@](C)(COC(=O)/C=C/c3ccc(O)c(OC)c3)[C@@H]2CC[C@@]1(C)O | 16.8 | 14.3 | 16.9 | 13.5 | 14.1
C=C[C@]1(C)C=C2CC[C@H]3[C@](C)(COC(C)=O)CCC[C@]3(C)[C@H]2[C@H](O)C1 | > 40 | > 40 | > 40 | > 40 | > 40
CC(C)c1cc2c(cc1O)[C@@]1(C)CCCC(C)(C)[C@@H]1CC2 [FERRUGINOL] | > 40 | > 40 | > 40 | > 40 | > 40
C=C[C@]1(C)C=C2CC[C@H]3C(C)(C)[C@@H](O)CC[C@]3(C)[C@H]2[C@H](OC(C)=O)C1 | > 40 | > 40 | > 40 | > 40 | > 40
C=C[C@]1(C)C=C2CC[C@H]3[C@](C)(CO)[C@@H](O)CC[C@]3(C)[C@H]2CC1 [SANDARACOPIMARADIENEDIOL] | > 40 | > 40 | > 40 | > 40 | > 40
